The text below walks through data of ChEMBL document CHEMBL1201862, “PubChem BioAssay data set” (2004).

SMILES strings stand for the structures. Several values for one entry are separate records, joined by “and”; a condition that tells them apart may be missing. Equal entries are not always repeated. Activity calls are given as the source filed them.

Assay [1] deals with T1, CAAX prenyl protease 2 (Homo sapiens, UniProt Q9Y256).
T1 sequence (Q9Y256 whole entry): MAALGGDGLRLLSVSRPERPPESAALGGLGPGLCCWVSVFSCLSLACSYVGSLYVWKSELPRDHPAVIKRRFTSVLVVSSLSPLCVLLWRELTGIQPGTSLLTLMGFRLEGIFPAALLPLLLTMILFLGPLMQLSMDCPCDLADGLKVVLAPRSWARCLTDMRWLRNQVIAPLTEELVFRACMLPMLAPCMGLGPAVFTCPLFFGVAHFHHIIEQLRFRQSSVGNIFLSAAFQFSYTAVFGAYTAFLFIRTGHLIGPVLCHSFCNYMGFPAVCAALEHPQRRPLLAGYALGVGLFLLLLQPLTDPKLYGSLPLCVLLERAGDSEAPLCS
Kind of assay: human Rce1 protease inhibitors, dose response, biochemical, yeast membranes, quenched-peptide fluorescence, cherry-pick (AID 588849).

Assay [2] addresses T2, Insulin-degrading enzyme (Homo sapiens, UniProt P14735).
T2 sequence (P14735 whole entry): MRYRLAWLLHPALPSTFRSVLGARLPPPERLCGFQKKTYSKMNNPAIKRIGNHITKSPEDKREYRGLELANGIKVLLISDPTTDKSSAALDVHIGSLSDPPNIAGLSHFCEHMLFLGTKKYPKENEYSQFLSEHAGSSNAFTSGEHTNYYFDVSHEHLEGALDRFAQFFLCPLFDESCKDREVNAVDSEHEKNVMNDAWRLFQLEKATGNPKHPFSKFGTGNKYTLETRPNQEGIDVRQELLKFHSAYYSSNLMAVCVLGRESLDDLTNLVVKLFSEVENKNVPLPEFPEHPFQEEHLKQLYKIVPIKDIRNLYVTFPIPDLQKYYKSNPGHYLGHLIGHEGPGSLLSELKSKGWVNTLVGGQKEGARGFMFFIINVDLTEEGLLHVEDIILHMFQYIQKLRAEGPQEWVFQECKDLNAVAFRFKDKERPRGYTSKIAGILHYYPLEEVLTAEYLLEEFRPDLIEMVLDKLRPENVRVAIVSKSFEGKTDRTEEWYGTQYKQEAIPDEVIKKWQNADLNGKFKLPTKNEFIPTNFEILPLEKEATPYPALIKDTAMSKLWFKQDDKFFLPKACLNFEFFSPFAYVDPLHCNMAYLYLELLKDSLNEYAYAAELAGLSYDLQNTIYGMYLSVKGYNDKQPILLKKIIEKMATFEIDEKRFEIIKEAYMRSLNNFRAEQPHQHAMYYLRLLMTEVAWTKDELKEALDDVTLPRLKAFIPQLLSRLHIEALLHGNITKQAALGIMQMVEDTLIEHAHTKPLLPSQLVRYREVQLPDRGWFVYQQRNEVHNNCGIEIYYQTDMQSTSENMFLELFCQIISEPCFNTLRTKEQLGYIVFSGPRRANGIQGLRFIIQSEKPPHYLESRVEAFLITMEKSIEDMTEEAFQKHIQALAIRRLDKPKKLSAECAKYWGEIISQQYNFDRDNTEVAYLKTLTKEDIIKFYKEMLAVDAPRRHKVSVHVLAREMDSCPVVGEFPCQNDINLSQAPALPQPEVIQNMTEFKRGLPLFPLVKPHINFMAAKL
Description: activators of endogenous IDE in HEK cells, dose response, cell-based, fluorescence polarization (AID 588439). In kind it is functional.

Assay [3] concerns HEK293. Description: optical interference in Abeta FP readout, dose response, artefact control for IDE activator project, biochemical, fluorescence polarization (AID 588442). Conditions: Homo sapiens. In kind it is functional, cell-based.
For assay [4], the target named is T2, Insulin-degrading enzyme. Description: activators of recombinant IDE enzyme, dose response, counter-screen for IDE activator project, biochemical, fluorescence polarization (AID 588681).
Assay [5] concerns HEK293. Description: HEK cell cytotoxicity by LDH release, dose response, cytotoxicity control for IDE activator project, fluorescence, HEK cells (AID 588440).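 Also: cytotoxicity by LDH release measuring loss of membrane integrity.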 In kind it is functional, cell-based. To be noted: Homo sapiens.
Assay [6] has as its target Protein disulfide-isomerase (Homo sapiens, UniProt P07237). Kind of assay: PDI inhibitors, insulin aggregation turbidity, dose response, biochemical, absorbance, cherry-picked samples (AID 602350). In kind it is functional.
Assay [7] deals with T3, Ubiquitin-conjugating enzyme E2 N (Homo sapiens, UniProt P61088).
T3 sequence (P61088 whole entry): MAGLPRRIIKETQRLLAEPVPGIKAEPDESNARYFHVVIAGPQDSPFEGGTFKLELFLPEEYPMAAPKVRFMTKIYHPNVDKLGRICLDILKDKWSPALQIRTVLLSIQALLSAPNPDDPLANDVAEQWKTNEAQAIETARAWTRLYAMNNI
In kind it is functional.

Assay [8] deals with T4, Bcl-2-related protein A1 (Mus musculus, UniProt Q07440).
T4 sequence (Q07440 whole entry): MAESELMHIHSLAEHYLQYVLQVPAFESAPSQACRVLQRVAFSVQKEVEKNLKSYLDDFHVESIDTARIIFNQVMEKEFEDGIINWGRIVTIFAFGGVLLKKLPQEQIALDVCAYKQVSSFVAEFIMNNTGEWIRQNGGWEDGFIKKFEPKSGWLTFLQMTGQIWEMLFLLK
In kind it is functional.

Assay [9] concerns the target T3, Ubiquitin-conjugating enzyme E2 N. The assay is classed as functional. The source holds these as a separate data set.
Assay [10] addresses Beta-2 adrenergic receptor (Homo sapiens, UniProt P07550). Kind of assay: beta2AR agonists driving receptor internalization, dose response, cell-based, FAP fluorogen, flow cytometry, cherry pick 1 (AID 588763). In kind it is functional.
Assay [11] concerns Vero. Description: Vero cell cytotoxicity, cytotoxicity control for flavivirus capping enzyme inhibitors (AID 588742). To be noted: Chlorocebus sabaeus. The assay is classed as functional.
Assay [12] deals with Genome polyprotein (dengue virus type 2, UniProt P29990). Description: Dengue-2 NS5 methyltransferase inhibitors, primary screen, biochemical, confirmation dose response (AID 588689). The assay is classed as functional.
Chain of Genome polyprotein (P29990 2492-3391 limits assumed): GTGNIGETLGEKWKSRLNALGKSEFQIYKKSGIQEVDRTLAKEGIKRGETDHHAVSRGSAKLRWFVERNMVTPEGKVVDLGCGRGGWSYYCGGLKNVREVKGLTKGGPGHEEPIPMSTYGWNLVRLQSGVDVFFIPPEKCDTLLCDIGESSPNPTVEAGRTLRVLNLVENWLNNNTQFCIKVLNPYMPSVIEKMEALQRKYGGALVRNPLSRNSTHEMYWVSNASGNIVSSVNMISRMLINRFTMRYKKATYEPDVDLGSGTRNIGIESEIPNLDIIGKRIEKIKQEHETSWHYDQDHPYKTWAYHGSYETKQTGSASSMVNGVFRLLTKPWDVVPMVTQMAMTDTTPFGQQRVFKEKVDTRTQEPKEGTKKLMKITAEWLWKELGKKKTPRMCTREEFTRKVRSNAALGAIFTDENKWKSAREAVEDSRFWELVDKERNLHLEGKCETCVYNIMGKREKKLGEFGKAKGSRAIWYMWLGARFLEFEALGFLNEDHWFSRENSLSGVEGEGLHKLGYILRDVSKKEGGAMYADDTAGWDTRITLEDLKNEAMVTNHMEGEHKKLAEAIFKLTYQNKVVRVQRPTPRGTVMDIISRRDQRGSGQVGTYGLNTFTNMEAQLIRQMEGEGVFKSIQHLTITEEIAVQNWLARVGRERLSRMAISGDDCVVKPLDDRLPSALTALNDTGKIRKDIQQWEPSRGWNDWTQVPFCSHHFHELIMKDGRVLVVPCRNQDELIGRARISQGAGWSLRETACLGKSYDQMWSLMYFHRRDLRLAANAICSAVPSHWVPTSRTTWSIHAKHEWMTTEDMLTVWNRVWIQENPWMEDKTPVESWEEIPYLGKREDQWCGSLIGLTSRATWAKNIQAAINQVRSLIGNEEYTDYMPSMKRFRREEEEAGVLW
Assay [13] in a line: cytotoxicity toward NIH3T3 fibroblasts, dose response, counter-screen, cell-based, ATP luminescence, mouse fibroblasts (AID 2010).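 Also: cells exposed to compound for about 90 hours before reading.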 The assay is classed as functional.
Assay [14] can be described thus: inhibitors of intracellular T. cruzi replication, confirmation, NIH3T3 host cells, beta-gal luminescence (AID 2044).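 Also: intracellular parasites grown in NIH/3T3 mouse fibroblasts as host cells; luminescent beta-galactosidase reporter signal from transgenic T. cruzi replicating inside host cells; inhibitors lower the luminescence signal.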 The assay is classed as functional, cell-based.
The test system of assay [15] is H4. Description: Luminescence Cell-Based Dose Response HTS to Identify Activators of 5'UTR Stem-Loop Driven Prion Protein mRNA Translation in H4 Neuroglioblastoma Cells. [Related pubchem assays: 1829 (Project Summary), 1814 (Primary HTS)]. Conditions: Homo sapiens. In kind it is functional.
In assay [16] the target is T5, Protein RecA (Mycobacterium tuberculosis, UniProt P9WHJ3).
T5 sequence (P9WHJ3 whole entry): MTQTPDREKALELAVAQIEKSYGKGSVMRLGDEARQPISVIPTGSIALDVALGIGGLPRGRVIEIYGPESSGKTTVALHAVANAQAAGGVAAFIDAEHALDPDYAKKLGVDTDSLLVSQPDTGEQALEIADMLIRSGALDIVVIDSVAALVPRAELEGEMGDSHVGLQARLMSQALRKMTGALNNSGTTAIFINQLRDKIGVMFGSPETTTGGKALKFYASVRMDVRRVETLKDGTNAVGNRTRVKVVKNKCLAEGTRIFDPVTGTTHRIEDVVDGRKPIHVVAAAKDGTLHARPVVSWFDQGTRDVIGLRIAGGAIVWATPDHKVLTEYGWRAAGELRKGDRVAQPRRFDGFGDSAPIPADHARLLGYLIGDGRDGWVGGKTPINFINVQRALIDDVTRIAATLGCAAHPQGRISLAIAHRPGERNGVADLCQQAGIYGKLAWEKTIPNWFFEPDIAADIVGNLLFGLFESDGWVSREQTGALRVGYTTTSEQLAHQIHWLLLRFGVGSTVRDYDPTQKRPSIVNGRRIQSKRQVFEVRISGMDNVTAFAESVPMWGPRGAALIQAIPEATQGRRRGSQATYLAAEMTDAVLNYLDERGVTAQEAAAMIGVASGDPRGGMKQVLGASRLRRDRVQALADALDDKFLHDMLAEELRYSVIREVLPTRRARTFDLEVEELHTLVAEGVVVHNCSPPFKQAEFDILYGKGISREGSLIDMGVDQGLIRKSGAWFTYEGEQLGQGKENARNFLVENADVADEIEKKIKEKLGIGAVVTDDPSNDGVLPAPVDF
Description: Fluorescence Cell-Free Homogeneous Dose Retest to Identify Inhibitors of RecA-Intein Splicing Activity. [Related pubchem assays (depositor defined):AID2097, AID2223, AID489010, AID492950]. In kind it is functional.

In assay [17] the target is T6, CAAX prenyl protease 2 (Saccharomyces cerevisiae S288c, UniProt Q03530).
T6 sequence (Q03530 whole entry): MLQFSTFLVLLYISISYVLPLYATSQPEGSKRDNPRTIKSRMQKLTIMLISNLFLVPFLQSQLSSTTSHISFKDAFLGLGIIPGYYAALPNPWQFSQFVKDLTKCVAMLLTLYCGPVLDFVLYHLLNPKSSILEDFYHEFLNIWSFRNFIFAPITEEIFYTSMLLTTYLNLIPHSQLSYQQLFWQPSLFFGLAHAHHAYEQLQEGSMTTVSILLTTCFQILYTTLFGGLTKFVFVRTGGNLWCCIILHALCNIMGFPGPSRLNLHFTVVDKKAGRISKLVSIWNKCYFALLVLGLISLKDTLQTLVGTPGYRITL
In kind it is biochemical.

Assay [18] can be described thus: Luminescence Cell-Based Dose Response HTS to Identify Activators of Luciferase Translation or Activity in H4 […] Cells. [Related pubchem assays: 1829 (Project Summary), 1814 (Primary HTS)]. In kind it is functional.
Assay [19] addresses T7, Caspase-6 (Homo sapiens, UniProt P55212).
T7 sequence (P55212 whole entry): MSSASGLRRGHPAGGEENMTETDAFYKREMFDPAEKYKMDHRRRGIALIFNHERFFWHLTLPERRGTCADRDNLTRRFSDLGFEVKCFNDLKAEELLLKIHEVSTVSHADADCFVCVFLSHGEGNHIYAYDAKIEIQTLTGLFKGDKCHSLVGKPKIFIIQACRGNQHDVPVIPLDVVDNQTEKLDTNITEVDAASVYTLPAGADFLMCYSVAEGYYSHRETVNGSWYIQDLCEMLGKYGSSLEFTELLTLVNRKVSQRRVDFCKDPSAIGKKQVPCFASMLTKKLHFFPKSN
Description: human caspase-6 inhibitors, dose response, biochemical, VEID-R110 fluorescence, cherry-pick (AID 720632).

A short description of assay [20]: Luminescence Cell-Based Dose Confirmation HTS to Identify Activators of 5'UTR Stem-Loop Driven Alpha-Synuclein mRNA Translation in H4 Neuroglioblastoma Cells. [Related pubchem assays: 1829 (Project Summary), 1814 (Primary HTS)]. In kind it is functional.
The target in assay [21] is Melanin-concentrating hormone receptor 1 (Homo sapiens, UniProt Q99705). Kind of assay: Late-stage fluorescence-based counterscreen for antagonists of the G-protein coupled receptor 7 (GPR7): cell-based dose response assay to identify antagonists of the melanin-concentrating hormone receptor 1 (MCHR1) Set 5. In kind it is functional.
Chain of Melanin-concentrating hormone receptor 1 (Q99705 whole entry): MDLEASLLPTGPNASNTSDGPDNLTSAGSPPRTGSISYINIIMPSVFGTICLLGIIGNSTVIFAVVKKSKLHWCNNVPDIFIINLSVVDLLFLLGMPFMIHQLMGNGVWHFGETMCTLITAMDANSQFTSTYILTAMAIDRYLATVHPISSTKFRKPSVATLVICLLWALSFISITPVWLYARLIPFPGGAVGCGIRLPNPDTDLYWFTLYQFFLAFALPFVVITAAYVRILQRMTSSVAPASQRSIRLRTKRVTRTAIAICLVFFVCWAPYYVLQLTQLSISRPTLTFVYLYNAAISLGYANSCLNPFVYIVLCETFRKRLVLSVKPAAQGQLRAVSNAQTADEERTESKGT

Chain of Protein disulfide-isomerase (P07237 whole entry): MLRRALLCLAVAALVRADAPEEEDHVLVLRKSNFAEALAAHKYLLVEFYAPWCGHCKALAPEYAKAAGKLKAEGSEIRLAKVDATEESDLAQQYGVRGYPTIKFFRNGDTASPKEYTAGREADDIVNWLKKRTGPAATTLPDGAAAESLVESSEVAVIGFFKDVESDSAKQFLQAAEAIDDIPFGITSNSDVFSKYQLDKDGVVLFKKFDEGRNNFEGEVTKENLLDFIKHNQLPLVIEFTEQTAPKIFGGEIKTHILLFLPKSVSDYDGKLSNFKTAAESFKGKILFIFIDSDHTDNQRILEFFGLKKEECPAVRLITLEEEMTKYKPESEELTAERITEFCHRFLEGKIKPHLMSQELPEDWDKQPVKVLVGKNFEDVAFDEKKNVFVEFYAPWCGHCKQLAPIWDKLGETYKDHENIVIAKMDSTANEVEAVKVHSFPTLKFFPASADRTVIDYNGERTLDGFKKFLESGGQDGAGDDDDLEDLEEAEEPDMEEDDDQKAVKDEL
Chain of Beta-2 adrenergic receptor (P07550 whole entry): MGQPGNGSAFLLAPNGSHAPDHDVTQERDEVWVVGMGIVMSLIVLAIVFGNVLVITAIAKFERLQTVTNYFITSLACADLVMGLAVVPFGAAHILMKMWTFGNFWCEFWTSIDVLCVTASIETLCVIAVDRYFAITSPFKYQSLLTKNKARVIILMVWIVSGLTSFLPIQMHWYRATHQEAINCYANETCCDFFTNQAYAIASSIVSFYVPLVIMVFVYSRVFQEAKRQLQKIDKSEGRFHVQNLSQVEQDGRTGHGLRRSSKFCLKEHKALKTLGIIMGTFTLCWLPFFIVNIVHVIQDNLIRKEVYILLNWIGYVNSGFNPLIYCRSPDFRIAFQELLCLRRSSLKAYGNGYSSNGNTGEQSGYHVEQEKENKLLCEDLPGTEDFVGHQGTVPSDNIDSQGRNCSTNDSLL

With `CCSc1nc(O)c2c(n1)N=C1CC(C)(C)CC(O)=C1C2c1ccccn1` (configuration not stated), in assay [1], the half-maximal activity concentration (AC50) is 9.79 µM (active).

Consider `O=C1C=C(c2ccc(-c3ccccc3)cc2)C[C@@H](c2ccc3c(c2)OCO3)C1`, for which the EC50 in assay [2], in [3] and in [4] was > 54.7 µM (inactive) each time. The IC50 in [5] was > 89.2 µM (inactive).

Regarding `CNC(=S)N(Cc1cccs1)Cc1cc2cc(OC)ccc2nc1O`, the EC50 in [2], in [3] and in assay [4] was > 54.7 µM (inactive) each time. In addition, the IC50 in assay [5] is > 89.3 µM (inactive).

In the case of `Cc1nnc(O)c2c(NC(=O)CSc3nnnn3-c3ccc(O)cc3)oc(C)c12`, in assay [6], the AC50 is 19.5 µM (active).

As for `O=C1C(Cc2cnc[nH]2)NC(=S)N1c1ccccc1` (configuration not stated), the values for the concentration for half-maximal inhibition (IC50) in assay [7], in [8] and in assay [9] were 8.14 µM (active), > 20 µM (inactive) and 4 µM (active), respectively.

Take `COc1cc2c(cc1Cl)C(=O)C(F)(c1ccccc1)C(=O)N2` (configuration not stated): the EC50 in assay [10] was 7.03 µM (inactive).

Regarding `Cc1cc(SCC(=O)NC(=O)c2cccn2C)nc2ccccc12`, the concentration for half-maximal inhibition (IC50) in assay [7] was 17.4 µM (active); in assay [8], > 20 µM (inactive); in assay [9], > 20 µM (inactive).

Consider `CC(=O)C1=C(O)C(=O)N(c2cc(C(C)(C)C)on2)C1c1ccc(C(C)C)cc1` (configuration not stated), for which the CC50 in [11] is > 40 µM (active). Moreover, in [12], the IC50 is 95.3 µM (active).

Consider `C=CCn1c(SCc2ccc(F)cc2)nnc1-c1sc2nc(C)cc(C)c2c1N`, for which the EC50 in assay [13] was > 60 µM (not active); in assay [14], 0.423 µM (active); in [10], 0.029 µM (active).

Turning to `Cc1ccc(C)c(S(=O)(=O)c2c[nH]c(=S)[nH]c2=O)c1`, the results for the IC50 in assay [7], in assay [8] and in assay [9] were 14.3 µM (active), > 20 µM (inactive) and > 20 µM (inactive), respectively.

Regarding `O=C(c1ccc2c(c1)OCO2)N(Cc1cccs1)C1(C(=O)NC2CCCCC2)CCCCC1`, in assay [11], the CC50 was > 40 µM (active).

For `Oc1nc(Nc2ccccn2)cc2ccccc12`, the EC50 is 36.8 µM (active) in assay [15], > 380 µM (inactive) in assay [16], 6.15 µM (active) in [18] and 4 µM (active) in assay [20]. Further, the AC50 was > 100 µM (inactive) in assay [17], 14 µM (active) in [1] and 5.89 µM (active) in [19].

For `Cc1noc(C)c1S(=O)(=O)Nc1ccc2c(c1)CC(=O)N([C@H](C)CO)C[C@H](C)[C@H](CN(C)S(=O)(=O)c1ccc(F)cc1)O2`, in assay [6], the concentration at half-maximal activity (AC50) is 16.9 µM (active) and 19.5 µM (active).

Consider `COc1ccc(Oc2c(Cl)cnn(CC(=O)N(c3ccccc3)c3ccccc3)c2=O)cc1`, for which, in assay [21], the IC50 is 10.7 µM (inactive).

For `C/C(CC(=O)N1CCCC1)=N\NC(=O)c1cc2ccccc2cc1O`, in assay [11], the half-maximal cytotoxic concentration (CC50) was 17.5 µM (active). In addition, the AC50 in [19] is 1.88 µM (active).
